# Laboratory results from patent US5679671A, “Amino acid derivative” (Eisai Co., Ltd., priority 1993, dated 1997).
# Columns and labels:
# NEP = biological target: T1, NEP (Rattus norvegicus, UniProt P07861); assay: NEP inhibition activity (Experiment C-1); format: biochemical; details: Table C-1
# T1 sequence (P07861 1-750): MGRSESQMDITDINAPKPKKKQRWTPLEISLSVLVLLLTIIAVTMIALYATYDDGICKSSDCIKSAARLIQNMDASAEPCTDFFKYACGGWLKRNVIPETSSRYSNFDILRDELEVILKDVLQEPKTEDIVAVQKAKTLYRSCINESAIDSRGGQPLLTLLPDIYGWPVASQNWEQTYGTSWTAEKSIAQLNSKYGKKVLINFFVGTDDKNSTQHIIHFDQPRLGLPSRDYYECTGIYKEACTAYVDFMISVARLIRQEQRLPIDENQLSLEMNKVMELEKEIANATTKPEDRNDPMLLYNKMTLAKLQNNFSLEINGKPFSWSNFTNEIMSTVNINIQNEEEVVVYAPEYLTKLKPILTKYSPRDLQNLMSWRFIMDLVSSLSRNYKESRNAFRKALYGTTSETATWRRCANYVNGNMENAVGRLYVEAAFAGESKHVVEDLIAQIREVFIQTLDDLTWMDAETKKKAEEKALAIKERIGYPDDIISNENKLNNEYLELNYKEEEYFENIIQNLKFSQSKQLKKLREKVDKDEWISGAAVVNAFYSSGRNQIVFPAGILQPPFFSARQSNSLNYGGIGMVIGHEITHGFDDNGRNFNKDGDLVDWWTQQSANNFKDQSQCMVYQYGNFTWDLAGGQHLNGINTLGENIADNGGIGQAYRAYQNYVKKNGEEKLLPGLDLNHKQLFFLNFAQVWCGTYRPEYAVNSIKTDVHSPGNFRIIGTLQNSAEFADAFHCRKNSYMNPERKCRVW
# Method: The NEP activity was determined by the following manner in accordance with the method of Orlowsky and Wilk (Purification and Specificity of a Membrane-Bound Metalloendpeptidase from Bovine Pituitaries., Marian Orlowsky and Shrwin Wilk, Biochemistry, 1981, 20, 4942-4950.).
# As a substrate, benzoyl-glycyl-arginyl-arginyl-2-naphthylamide (benzoyl-Gly-Arg-Arg-2-naphthylamide (Nova Biochem, Switzerland)) was used. In the presence of an NEP enzyme preparation and excessive leucine aminopeptidase (sigma chemical Co., U.S.A.), the liberated naphthylamine was made to undergo color development with first garnet (Sigma chemical Co., U.S.A.), followed by the measurement of the absorbance at a wavelength of 540 nm.
# With respect to the NEP inhibition activity, the test compound was added to the experimental system as described above in such a manner as to give the final concentrations of 1, 3, 10, 30, 100, 300 and 1000 nM, an inhibition curve was prepared, and then the concentration at which 50% inhibition was achieved was taken as IC50. As a comparative compound, [4S-[4α,7α(R*),12bβ]]-7-[(1-oxo-2-(S)-thio-3-phenyl-propyl)amino]-1,2,3,4,6,7,8,12b-octahydro-6-oxopyrido-[2,1-a][2]benzazepine-4-carboxylic acid was used.
# ANP-treated SHR = assay: Diuretic effect on ANP-treated SHR, i.v. (Experiment C-4); format: in vivo, Spontaneously hypertensive male rats
# Method: 50 ng/kg/min of rat Atrial natriuretic peptide (r-ANP) was intravenously injected into Spontaneously hypertensive male rats (aged 14 to 16 weeks). When the hematogenic dynamics and the blood r-ANP level became stable 1 hour after the injection, the diuretic effect of each test compound was examined. The diuretic effect was determined by intravenously injecting the test compound and measuring an increase (% rate of change) in urinary accumulation within 20 minutes. As a comparative compound, [4S-[4α,7α(R*),12bβ]]-7-[(1-oxo-2(S)-thio-3-phenylpropyl)amino[-1,2,3,4,6,7,8,12b-octahydro-6-oxopyrido[2,1-a][2]benzazepine-4-carboxylic acid was used.
SMILES,IC50 (NEP),increase (% rate of change) in urinary accumulation within 20 minutes (ANP-treated SHR; 0.03 mg/kg i.v.),increase (% rate of change) in urinary accumulation within 20 minutes (ANP-treated SHR; 0.1 mg/kg i.v.),increase (% rate of change) in urinary accumulation within 20 minutes (ANP-treated SHR; 0.3 mg/kg i.v.),increase (% rate of change) in urinary accumulation within 20 minutes (ANP-treated SHR; 0.01 mg/kg i.v.)
"CC[C@H](C)[C@H](S)C(=O)NC1CCc2ccccc2N(CC(=O)O)C1=O (stereo partly drawn) [Example A-9, 1-Carboxymethyl-3-[(2S,3S)-2-mercapto-3-methylvarelylamino]-1H-[1]benzazepin-2-one]",12.5 nM,–,–,–,–
"CC[C@H](C)[C@H](S)C(=O)N[C@H]1Cc2ccc(-c3ccccc3)cc2[C@H]2CCC[C@@H](C(=O)O)N2C1=O [Example C-14, [4S-[4α,7α(R*),12bβ]]-7-[[(2S,3S)-3-Methyl-1-oxo-2-thiopentyl]amino]-6-oxo-11-phenyl-1,2,3,4,6,7,8,12b-octahydropyrido[2,1-a][2]benzazepine-4-carboxylic acid]",17.8 nM,240%,420%,470%,–

# Continued by falling IC50 (NEP), values first:
IC50 (NEP),SMILES,increase (% rate of change) in urinary accumulation within 20 minutes (ANP-treated SHR; 0.03 mg/kg i.v.),increase (% rate of change) in urinary accumulation within 20 minutes (ANP-treated SHR; 0.1 mg/kg i.v.),increase (% rate of change) in urinary accumulation within 20 minutes (ANP-treated SHR; 0.3 mg/kg i.v.),increase (% rate of change) in urinary accumulation within 20 minutes (ANP-treated SHR; 0.01 mg/kg i.v.)
27 nM,"O=C(N[C@H]1Cc2ccccc2[C@H]2CCC[C@@H](C(=O)O)N2C1=O)[C@@H](S)Cc1ccccc1 [Comp. cpd. E-1, [4S-[4α,7α(R*),12bβ]]-7-[(1-oxo-2-(S)-thio-3-phenyl-propyl)amino]-1,2,3,4,6,7,8,12b-octahydro-6-oxopyrido-[2,1-a][2]benzazepine-4-carboxylic acid, reference compound]",220%,370%,360%,–
13.4 nM,"CC[C@H](C)[C@H](S)C(=O)N[C@H]1CCC[C@H]2SC[C@@H](C(=O)O)N2C1=O [Example C-8, [3R-[3α,6α,(S*),9aβ]]-6-[[(2S,3S)-3-methyl-1-oxo-2-thiopentyl]amino]-octahydro-5-oxothiazol[3,2-a]-azepine-3-carboxylic acid]",280%,340%,–,200%
6.2 nM,"CC[C@H](C)[C@H](S)C(=O)N[C@H]1CCc2ccccc2N(CC(=O)O)C1=O [Example A-11, (S)-3-[(2S,3S)-2-Mercapto-3-methylvarelylamino]-1-carboxymethyl-2,3,4,5-tetrahydro-1H-[1]benzazepin-2-one]",390%,460%,–,220%
